# Reference: article PMC10382584, “Macrocyclization of linear molecules by deep learning to facilitate macrocyclic drug candidates discovery” (Nature Communications, 2023)
# Several values for one entry are separate records, joined by “and”; a condition that tells them apart may be missing. Equal entries are not always repeated. Where two headings read alike, the source gives them in different places.
# Columns and labels:
# JAK2 = target: T1, JAK2 (Homo sapiens, UniProt O60674); test: JAK2 enzyme assay (Z'-LYTE kinase assay kit); type: biochemical
# T1 construct: 0.05–0.42 ng JAK2, 2 μM peptide substrate (Tyr06)
# T1 sequence (O60674 whole entry): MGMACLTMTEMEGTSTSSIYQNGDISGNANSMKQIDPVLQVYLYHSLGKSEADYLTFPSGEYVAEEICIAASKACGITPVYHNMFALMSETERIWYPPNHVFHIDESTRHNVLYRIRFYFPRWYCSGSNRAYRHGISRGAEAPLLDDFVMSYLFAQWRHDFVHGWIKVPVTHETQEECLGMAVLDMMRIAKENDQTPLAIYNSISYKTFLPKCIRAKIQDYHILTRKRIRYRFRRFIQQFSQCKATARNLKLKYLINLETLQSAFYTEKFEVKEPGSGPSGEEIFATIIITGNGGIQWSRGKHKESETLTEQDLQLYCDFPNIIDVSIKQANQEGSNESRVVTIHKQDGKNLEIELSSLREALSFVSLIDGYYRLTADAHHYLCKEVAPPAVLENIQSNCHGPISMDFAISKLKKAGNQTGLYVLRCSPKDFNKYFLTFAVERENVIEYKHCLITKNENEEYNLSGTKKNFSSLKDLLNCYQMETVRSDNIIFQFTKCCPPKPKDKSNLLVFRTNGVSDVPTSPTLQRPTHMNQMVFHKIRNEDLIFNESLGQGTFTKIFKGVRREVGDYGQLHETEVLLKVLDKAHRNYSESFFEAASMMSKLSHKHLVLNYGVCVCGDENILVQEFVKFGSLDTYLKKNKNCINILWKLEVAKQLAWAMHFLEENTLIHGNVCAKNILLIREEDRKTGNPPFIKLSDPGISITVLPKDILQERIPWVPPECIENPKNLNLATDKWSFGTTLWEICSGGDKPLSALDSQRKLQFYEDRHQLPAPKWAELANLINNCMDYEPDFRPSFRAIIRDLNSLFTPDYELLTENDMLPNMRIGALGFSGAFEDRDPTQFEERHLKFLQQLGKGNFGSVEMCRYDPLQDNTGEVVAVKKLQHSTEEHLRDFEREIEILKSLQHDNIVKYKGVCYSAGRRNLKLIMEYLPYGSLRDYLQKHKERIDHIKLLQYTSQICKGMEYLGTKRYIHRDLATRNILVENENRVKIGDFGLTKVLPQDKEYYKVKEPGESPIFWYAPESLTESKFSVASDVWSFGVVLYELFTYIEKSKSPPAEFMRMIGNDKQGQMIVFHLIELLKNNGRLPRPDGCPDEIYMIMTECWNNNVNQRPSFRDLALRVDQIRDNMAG
# Protocol: JAK kinase activity assays were performed using Z’-LYTETM kinase assay kit (Life Technologies, pv4122). […] The mixture was added into the 384-well microplate, shaken gently, and then incubated at room temperature for 1 h. Subsequently, 5 μL development solution was added to the well for incubating another 1 h. Finally, 5 μL stop reagent was added to stop the reaction. […] IC50 values were calculated using GraphPad Prism v8.0.3, and three parallel experiments were performed.
# HEL cells = test: Cell proliferation assay (CCK-8), HEL cells; type: cell-based, human; details: for Inhibition (%): single wells, replicates 1 and 2
# SET-2 cells = test: Cell proliferation assay (CCK-8), SET-2 cells; type: cell-based, human
# [1] = test system: JAK2-STAT signaling pathways in HEL cells; test: Western blot analysis of JAK2-STAT signaling in HEL cells; type: cell-based, human; details: 0.3-10 μM, 0.5 h
# Protocol: HEL cells were added into six-well plates (2 × 10^6 cells/well) and then put into the incubator (37 °C, 5% CO2). After 24 h, the tested compounds were diluted in RPMI-1640 medium (final DMSO concentration = 0.1%) with different concentrations (0 μM, 0.3 μM, 1 μM, 3 μM, and 10 μM) was added separately into the wells, and incubated for another 0.5 h, then cells were collected and lysed. Proteins from each sample were isolated by SDS-PAGE and transferred to PVDF membrane. The membranes were blocked in 5% milk (TBST) for 1 h at room temperature, and subsequently incubated with the indicated primary antibody in blocking buffer overnight at 4 °C. Primary antibodies were used as follows: p-Y1007/8-JAK2 (#3771, CST, 1:1000), p-Y221-JAK2 (#11150, SAB, 1:500), p-Y705-STAT3 (#11045, SAB, 1:1000), p-Y694-STAT5 (#13386, SAB, 1:2000), STAT3 (10253-2-AP, Proteintech, 1:4000), STAT5 (12071-1-AP, Proteintech, 1:4000), JAK2 (E-AB-70193, Elabscience, 1:2000) and β-Actin (E-AB-20034, Elabscience, 1:10000). Then the membranes were washed with TBST (3 × 5 min), incubated with HRP-conjugated secondary antibody for 1 h at room temperature, washed again, and then exposed by chemiluminescence method using the enhanced ECL immunoblotting system (Tanon, Shanghai, China). All the experiments were repeated in triplicate. Blot bands were quantified by densitometry using Image J software v1.51.
# [2] = Chemical stability in DMSO stock solution (HPLC purity); type: physicochemical; details: mean±SD
# Source text: compounds were formulated in the solubilizing vehicle (5% DMSO/30% PEG400/65% […]
# safety to the mice in the test.
# 6. What was the sample dissolved in for the in vitro and in vivo experiments? Response: The solvent information for the in vitro and in vivo experiments has been added in the revised manuscript. […]
# 7. Was the stability of the different compounds assessed and compared to Fedratinib? This is generally a critical point in macrocyclic studies. […]
# in DMSO stock solution. Test compounds were incubated at room temperature and 60 ℃, respectively, for 72 h, and their purities (%) were determined using HPLC equipped with a CORTECS C18 column (4.6*50 mm, 2.7 μm particle size) and a UV/VIS detector setting of λ=210 nm. All co mpounds were eluted with the two solvent systems ([…] as organic phase in Method I and CH3OH as organic phase in Method II) at a flow rate of 0.3 ml/min. Each experiment repeated for three times and the results are represented as mean±SD.
# Ta b e l R 1 . Comparison of chemical stability of different compounds at room temperature and 60 ℃, respectively.
# In vivo PK study in mice = details: for concentration at time point (concentration-time data, Supplementary Fig. 8): individual mice 1-3; for AUCinf / Cmax / T1/2 / Tmax: mice
# Protocol: The mice were separately administered to a group of three mice per time point for intravenous (5 mg/kg) or oral administration (5 mg/kg). […] Then the samples were separated by centrifugation and analyzed by LC-MS/MS (XEVO TQ-S) to determine the plasma drug concentrations. The PK parameters were calculated using the noncompartment model with Phoenix WinNonLin v8.0. The animal experimental procedures were approved by the Medicine Research Ethics Committee of Hangzhou Leading Pharmatech Co., Ltd.
# 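Throughout, for AUCinf: mice dosed intravenously or orally, three animals per time point, plasma drug levels quantified by LC-MS/MS, PK parameters derived by noncompartmental analysis in Phoenix WinNonLin.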
# 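Throughout, for Cmax: mice dosed intravenously or orally, three animals per time point, plasma drug levels quantified by LC-MS/MS, PK parameters derived by noncompartmental analysis in Phoenix WinNonLin.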
# 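Throughout, for T1/2: mice dosed intravenously or orally, three animals per time point, plasma drug levels quantified by LC-MS/MS, PK parameters derived by noncompartmental analysis in Phoenix WinNonLin.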
# 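Throughout, for concentration at time point (concentration-time data, Supplementary Fig. 8): mice dosed intravenously or orally, three animals per time point, plasma drug levels quantified by LC-MS/MS, PK parameters derived by noncompartmental analysis in Phoenix WinNonLin.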
compound,measurement,setting,value
Cc1cnc2nc1Nc1cccc(c1)COCC=CCOCc1cc(ccc1OCCN1CCCC1)N2 [Compound 3],IC50,"JAK2; JAK2, 25 μM ATP, mean ± SD, n = 3, read-out: Enzyme Inhibitory Activity (IC50)",0.006 µM
same,IC50,"JAK2; JAK2 enzyme, mean of 3 replicates, read-out: IC50/μM mean, enzyme inhibitory activity",0.006 µM
same,IC50,"JAK2; JAK2 enzyme, mean ± SD of 3 replicates, read-out: IC50/μM mean ± SD, enzyme inhibitory activity",0.006 ± 0.001 µM
same,IC50,"JAK2; JAK2 enzyme, single-replicate fits (replicates 1-3), read-out: IC50/μM (individual replicates), enzyme inhibitory activity",0.00662 µM and 0.00532 µM and 0.00569 µM
same,Inhibition (%),"HEL cells; HEL cell lines, 0.0977 μM",7.532% and 3.479% and 4.355% and 9.373% and 0.491% and 6.308%
same,Inhibition (%),"HEL cells; HEL cell lines, 0.1953 μM",13.777% and 7.751% and 6.875% and 6.544% and 1.513% and 5.600%
same,Inhibition (%),"HEL cells; HEL cell lines, 0.3906 μM",19.145% and 12.682% and 3.259% and 5.522% and 6.779% and 5.600%
same,Inhibition (%),"HEL cells; HEL cell lines, 0.7813 μM",21.994% and 15.749% and 13.120% and 10.788% and 3.085% and 13.618%
same,Inhibition (%),"HEL cells; HEL cell lines, 1.5625 μM",37.004% and 30.321% and 23.090% and 24.936% and 24.700% and 25.722%
same,Inhibition (%),"HEL cells; HEL cell lines, 3.1250 μM, 3.125 µM",60.340% and 50.260% and 45.440% and 49.460% and 46.787% and 48.123%
same,Inhibition (%),"HEL cells; HEL cell lines, 6.2500 μM, 6.25 µM",81.375% and 75.240% and 74.473% and 74.140% and 73.276% and 76.577%
same,Inhibition (%),"HEL cells; HEL cell lines, 12.5000 μM, 12.5 µM",87.949% and 81.375% and 82.142% and 84.437% and 81.607% and 79.564%
same,IC50,"HEL cells; HEL cell lines, mean of 2 replicates, read-out: IC50/μM mean, cellular antiproliferative activity",3.05 µM
same,IC50,"HEL cells; HEL cell lines, single-replicate fits, read-out: IC50/μM (individual replicates), cellular antiproliferative activity",3.33 µM and 2.78 µM
same,IC50,"HEL cells; HEL cells, 72 h, mean ± SD, read-out: Cellular Antiproliferative Activity (IC50) HEL",3.06 ± 0.39 µM
same,Inhibition (%),"SET-2 cells; SET-2 cell lines, C 0.0977 μM, single wells of replicate 1 and replicate 2",-27.9889% and -18.4466% and -28.7656% and 0.261% and 11.375% and 10.333%
same,Inhibition (%),"SET-2 cells; SET-2 cell lines, C 0.1953 μM, single wells of replicate 1 and replicate 2",-32.7601% and -23.4397% and -24.3273% and 16.816% and 17.164% and 5.470%
same,Inhibition (%),"SET-2 cells; SET-2 cell lines, C 0.3906 μM, single wells of replicate 1 and replicate 2",-24.5492% and -19.4452% and -33.2039% and 12.880% and 13.806% and 4.892%
same,Inhibition (%),"SET-2 cells; SET-2 cell lines, C 0.7813 μM, single wells of replicate 1 and replicate 2",-42.4133% and -41.7476% and -46.4078% and 9.291% and 13.806% and 8.828%
same,Inhibition (%),"SET-2 cells; SET-2 cell lines, C 1.5625 μM, single wells of replicate 1 and replicate 2",-43.4119% and -41.8585% and -40.6380% and 14.617% and 26.541% and 23.994%
same,Inhibition (%),"SET-2 cells; SET-2 cell lines, C 3.1250 μM, single wells of replicate 1 and replicate 2",-19.0014% and -10.7906% and -7.5728% and 27.931% and 19.711% and 22.952%
same,Inhibition (%),"SET-2 cells; SET-2 cell lines, 6.2500 μM, single wells, replicates 1 and 2, 6.25 µM",17.1706% and 27.3786% and 29.5978% and 31.635% and 25.499% and 11.259%
same,Inhibition (%),"SET-2 cells; SET-2 cell lines, 12.5000 μM, single wells, replicates 1 and 2, 12.5 µM",59.6671% and 60.0000% and 61.2205% and 43.097% and 40.782% and 34.993%
same,IC50,"SET-2 cells; SET-2 cell lines, mean of 2 replicates, read-out: IC50/μM mean, cellular antiproliferative activity",11.1 µM
same,IC50,"SET-2 cells; SET-2 cell lines, mean ± sd of 2 replicates, read-out: IC50/μM mean ± sd, cellular antiproliferative activity",11.1 ± 0.13 µM
same,IC50,"SET-2 cells; SET-2 cell lines, single-replicate fits, read-out: IC50/μM (individual replicates), cellular antiproliferative activity",11 µM and 11.2 µM
same,IC50,"SET-2 cells; SET-2 cells, 72 h, mean ± SD, read-out: Cellular Antiproliferative Activity (IC50) SET-2",11.1 ± 0.13 µM
same,activation of downstream signaling molecule STAT3 and STAT5,[1],significantly inhibited
same,phosphorylation of JAK2 at Y1007/8 site,[1],increased
same,phosphorylation of JAK2 at Y221 site,[1]; dose-dependent,efficiently blocked
same,purity after incubation in DMSO stock solution,"[2]; 60 ℃, 0 h",99.78±0.07%
same,purity after incubation in DMSO stock solution,"[2]; 60 ℃, 2 h",99.46±0.04%
same,purity after incubation in DMSO stock solution,"[2]; 60 ℃, 24 h",99.64±0.04%
same,purity after incubation in DMSO stock solution,"[2]; 60 ℃, 48 h",99.66±0.06%
same,purity after incubation in DMSO stock solution,"[2]; 60 ℃, 72 h",99.78±0.03%
same,purity after incubation in DMSO stock solution,"[2]; Room Temperature, 0 h",99.68±0.05%
same,purity after incubation in DMSO stock solution,"[2]; Room Temperature, 2 h",99.77±0.01%
same,purity after incubation in DMSO stock solution,"[2]; Room Temperature, 24 h",99.68±0.07%
same,purity after incubation in DMSO stock solution,"[2]; Room Temperature, 48 h",99.63±0.02%
same,purity after incubation in DMSO stock solution,"[2]; Room Temperature, 72 h",99.64±0.10%
same,"concentration at time point (concentration-time data, Supplementary Fig. 8)","In vivo PK study in mice; iv 5 mg/kg, 0.5 h, 5 mg/kg",112.17 and 96.91 and 108.01
same,"concentration at time point (concentration-time data, Supplementary Fig. 8)","In vivo PK study in mice; iv 5 mg/kg, 1 h, 5 mg/kg",33.98 and 41.85 and 29.29
same,"concentration at time point (concentration-time data, Supplementary Fig. 8)","In vivo PK study in mice; iv 5 mg/kg, 2 h, 5 mg/kg",22.85 and 22.08 and 24.61
same,"concentration at time point (concentration-time data, Supplementary Fig. 8)","In vivo PK study in mice; iv 5 mg/kg, 4 h, 5 mg/kg",23.46 and 31.4 and 25.29
same,"concentration at time point (concentration-time data, Supplementary Fig. 8)","In vivo PK study in mice; iv 5 mg/kg, 8 h, 5 mg/kg",17.79 and 10.67 and 14.54
same,"concentration at time point (concentration-time data, Supplementary Fig. 8)","In vivo PK study in mice; iv 5 mg/kg, 24 h, 5 mg/kg",2.18 and 0 (2×)
same,AUCinf,In vivo PK study in mice; iv (5 mg/kg),443.20 ng·h/mL
same,Cmax,In vivo PK study in mice; iv (5 mg/kg),351.23 ng/mL
same,T1/2,In vivo PK study in mice; iv (5 mg/kg),0.52 h
same,Tmax,In vivo PK study in mice; iv (5 mg/kg),0.083 h
same,AUCinf,In vivo PK study in mice; po (5 mg/kg),114.69 ng·h/mL
same,Cmax,In vivo PK study in mice; po (5 mg/kg),6.64 ng/mL
same,T1/2,In vivo PK study in mice; po (5 mg/kg),10.07 h
same,Tmax,In vivo PK study in mice; po (5 mg/kg),4.00 h
same,"concentration at time point (concentration-time data, Supplementary Fig. 8)","In vivo PK study in mice; po 5 mg/kg, 1 h, 5 mg/kg",2.46 and 4.26 and 2.81
same,"concentration at time point (concentration-time data, Supplementary Fig. 8)","In vivo PK study in mice; po 5 mg/kg, 2 h, 5 mg/kg",3.59 and 4.51 and 5.67
same,"concentration at time point (concentration-time data, Supplementary Fig. 8)","In vivo PK study in mice; po 5 mg/kg, 3 h, 5 mg/kg",4.59 and 4.64 and 5.68
same,"concentration at time point (concentration-time data, Supplementary Fig. 8)","In vivo PK study in mice; po 5 mg/kg, 4 h, 5 mg/kg",6.18 and 5.41 and 8.34
same,"concentration at time point (concentration-time data, Supplementary Fig. 8)","In vivo PK study in mice; po 5 mg/kg, 6 h, 5 mg/kg",4.85 and 6.09 and 5.97
same,"concentration at time point (concentration-time data, Supplementary Fig. 8)","In vivo PK study in mice; po 5 mg/kg, 8 h, 5 mg/kg",4.94 and 5.49 and 4.7
same,"concentration at time point (concentration-time data, Supplementary Fig. 8)","In vivo PK study in mice; po 5 mg/kg, 24 h",0
